Values quoted from earlier work as cited in patent US20060099233A1, “Granular formulation of neem seed extract and its process thereof” (E.I.D. Parry (India) Limited, priority 2004, published 2006).
Like-named read-outs stand apart in the source and are kept apart here.

Conditions: 25 days at 29±1° C.

## C/C=C(\C)C(=O)O[C@H]1C[C@@H](OC(C)=O)[C@@]2(C(=O)OC)CO[C@H]3[C@@H](O)[C@@](C)([C@]45O[C@@]4(C)[C@@H]4C[C@H]5O[C@@H]5OC=C[C@@]54O)[C@H]4[C@]1(CO[C@]4(O)C(=O)OC)[C@@H]32 [azadirachtin A]
In ethanol and water
  degradation of azadirachtin A: about 85%
In methanol and acetone
  degradation of azadirachtin A: 50%
In methylene chloride, carbon tetrachloride and chloroform
  degradation of azadirachtin A: 75-80%
